Laboratory results reported in patent US8003812B2, “C10 cyclopentyl ester substituted taxanes” (priority 2004, dated 2011).
Where “and” joins values, the source holds several entries; their conditions need not be identical. Identical values can stand only once. Like-named read-outs stand apart in the source and are kept apart here.

How the values were obtained:
[1] = test system: VM46 (resistant variant of human colon carcinoma HCT 116); test: In vitro cytotoxicity, cell colony formation assay, VM46; format: cell-based; conditions: 72 h drug incubation
Description: The cells were incubated in a CO2 incubator at 37° C. for 5 h for attachment to the bottom of Petri dishes. The compound of the present invention was made up fresh in medium at ten times the final concentration, and then 0.3 mL of this stock solution was added to the 2.7 mL of medium in the dish. The cells were then incubated with drugs for 72 h at 37° C. At the end of incubation the drug-containing media were decanted, the dishes were rinsed with 4 mL of Hank's Balance Salt Solution (HBSS), 5 mL of fresh medium was added, and the dishes were returned to the incubator for colony formation. The cell colonies were counted using a colony counter after incubation for 7 days. Cell survival was calculated and the values of IC50 (the drug concentration producing 50% inhibition of colony formation) were determined for each tested compound.
Identical assessments were carried out using VM46 (resistant variant of human colon carcinoma HCT 116 obtained from Dr. Li-Xi, M.D, Ph.D., California Pacific Medical Center, CA).

[2] = test system: human pancreatic tumor xenograft Panc-1; conditions: for No. of CR / No. of LTTES / No. of PR: 6 mice; for Median TTE: endpoint 1200 mg; for Efficacy Score = 10*(TWd1−TWdn)/TWd1: best score 10; for No. of NTR / No. of TR: mouse, in vivo, po;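 for all read-outs here: Panc-1 fragments grown subcutaneously in athymic nude mice, one oral dose given on Day 1, six mice per group, tumor endpoint 1200 mm^3, control is Group 1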
Description: The tumor used for this study was maintained in athymic nude mice. A tumor fragment (1 mm^3) was implanted s.c. into the right flank of each test mouse. Tumors were monitored twice weekly and then daily as their volume approached 200-400 mm^3 with a mean of 250-300 mm^3. On Day 1 of the study, the animals were sorted into treatment groups with tumor sizes of 171.5-320.0 mm^3 and group mean tumor sizes of 212.6-216.0 mm^3. Tumor size, in mm^3, was calculated from the following formula:
[formula] where w=width and l=length in mm of the tumor. Tumor weight was estimated with the assumption that 1 mg is equivalent to 1 mm^3 of tumor volume. […] All treatments were administered orally, once on Day 1 (qd×1). […] In all groups, the dosing volume of 0.6 mL/20 g mouse was scaled to the body weight of each animal. Each animal was euthanized when its neoplasm reached the predetermined endpoint size (1200 mm^3). The time to endpoint (TTE) for each mouse was calculated by the following equation:
[formula] where TTE is expressed in days, endpoint volume is in mm^3, b is the intercept, and m is the slope of the line obtained by linear regression of a log-transformed tumor growth data set. The data set is comprised of the first observation that exceeded the study endpoint volume and the three consecutive observations that immediately preceded the attainment of the endpoint volume. […] Animals classified as TR (treatment-related) deaths or NTRM (non-treatment-related metastasis) deaths are assigned a TTE value equal to the day of death. Animals classified as NTR (non-treatment-related) deaths are excluded from TTE calculations. Treatment efficacy was determined from tumor growth delay (TGD), which is defined as the increase in the median TTE for a treatment group compared to the control group: TGD=T−C, expressed in days, or as a percentage of the median TTE of the control group:
[formula] where: • T=median TTE for a treatment group and • C=median TTE for control Group 1.
Treatment may cause partial regression (PR) or complete regression (CR) of the tumor in an animal. In a PR response, the tumor volume is 50% or less of its Day 1 volume for three consecutive measurements during the course of the study, and equal to or greater than 13.5 mm^3 for one or more of these three measurements. In a CR response, the tumor volume is less than 13.5 mm^3 for three consecutive measurements during the course of the study. An animal with a CR response at the termination of a study is additionally classified as a long-term tumor-free survivor (LTTFS).
With respect to toxicity, the animals were weighed daily on Days 1-5, then twice weekly until the completion of the study. The mice were examined frequently for overt signs of any adverse, drug-related side effects. Acceptable toxicity for the maximum tolerated dose (MTD) of a cancer drug in mice is defined by the NCl as a group mean body-weight (BW) loss of less than 20% during the test, and not more than one toxic death among ten treated animals. The log rank test was employed to analyze the significance of the difference between the TTE values of a drug-treated group and the vehicle-treated control group. The log rank test analyzes the data for all animals except the NTR deaths. The two-tailed statistical analyses were conducted at P=0.05. The group median tumor growth curves show the median tumor volume (MTV) as a function of time. When an animal exited the study due to tumor size or TR death, the final tumor volume recorded for the animal was included with the data used to calculate the median volume at subsequent time points.

[3] = test system: HT29 (human colon carcinoma) xenograft; conditions: for Efficacy Score = 10*(TWd1−TWdn)/TWd1: single dose IV
Description: Score=10*(TWd1−TWdn)/TWd1, where
TWd1=tumor weight on day 1
TWDn=lowest tumor weight on day 10 or later
Thus the best score for complete regression would be 10.

[4] = Panc-1, Group 2: 120 mg/kg po qd × 1
[5] = Panc-1, Group 2: 120 mg/kg po qd × 1, 120 mg/kg
[6] = Panc-1, Group 3: 60 mg/kg po qd × 1
[7] = Panc-1, Group 3: 60 mg/kg po qd × 1, 60 mg/kg
[8] = Group 5: 120 mg/kg IV QD × 1 in 5% E-95% I-20, 6 mice
[9] = Group 6: 60 mg/kg IV QD × 1 in 5% E-95% I-20, 6 mice
[10] = Group 7: 120 mg/kg IV QD × 1 in 5% ET in Saline, 6 mice
[11] = Group 8: 60 mg/kg IV QD × 1 in 5% ET in Saline, 6 mice
[12] = Group 9: 120 mg/kg IV QD × 1 in 5% EC in Saline, 6 mice
[13] = Group 10: 60 mg/kg IV QD × 1 in 5% EC in Saline, 6 mice
[14] = Group 14: 30 mg/kg IV Q4d × 4 in 5% E-95% I-20, 6 mice
[15] = Group 15: 20 mg/kg IV Q4d × 4 in 5% E-95% I-20, 6 mice
[16] = Group 16: 30 mg/kg IV Q4d × 4 in 5% ET in Saline, 6 mice
[17] = Group 17: 20 mg/kg IV Q4d × 4 in 5% ET in Saline, 6 mice
[18] = Group 18: 30 mg/kg IV Q4d × 4 in 5% EC in Saline, 6 mice
[19] = Group 19: 20 mg/kg IV Q4D × 4 in 5% EC in Saline, 6 mice

For `CC(=O)OC12COC1CC(O)C1(C)C(=O)C(OC(=O)C3CCCC3)C3=C(C)C(OC(=O)C(O)C(NC(=O)OC(C)C)c4cccs4)CC(O)(C(OC(=O)c4ccccc4)C21)C3(C)C` (stereo not shown) [Compound 9091], the IC50 [1] was 1.9 nM and 1.87 nM, the “T − C” value [2, 4] was 40.1 days and the “% TGD” value [2, 5] was 212%. The “No. of CR” value [2, 4] was 3, the “No. of LTTES” value [2, 4] was 3 and the “No. of PR” value [2, 4] was 3. For the same molecule, the “Tumor Burden Median(n), Day 59 (MTV)” value [2, 5] was 56 mm^3 and 56 (6) mm^3, the “Median TTE” value [2, 4] was 59.0 days and the “T − C” value [2, 6] was 40.1 days. For the same molecule, the “% TGD” value [2, 7] was 212%, the “No. of CR” value [2, 6] was 1 and the “No. of LTTES” value [2, 6] was 1. For the same molecule, the “No. of PR” value [2, 6] was 5, the “Tumor Burden Median(n), Day 59 (MTV)” value [2, 7] was 148 mm^3 and 148 (6) mm^3 and the “Median TTE” value [2, 6] was 59.0 days. For the same molecule, the survival ([2]; Panc-1, at both the 120 and 60 mg/kg dose, po qd × 1) was 100%, the regression responses ([2]; Panc-1, at both the 120 and 60 mg/kg dose, po qd × 1, 6 mice per group) was “six” and the “Efficacy Score = 10*(TWd1−TWdn)/TWd1” value ([2]; Panc-1, single dose oral 60 mg/kg) was 8.3. The “Efficacy Score = 10*(TWd1−TWdn)/TWd1” value ([2]; Panc-1, single dose oral 120 mg/kg) was 9.1, the “No. of NTR” value ([2]; 60 mg/kg) was 0 and the “No. of TR” value ([2]; 60 mg/kg) was 0. For the same molecule, the “No. of NTR” value ([2]; 120 mg/kg) was 0, the “No. of TR” value ([2]; 120 mg/kg) was 0 and the “# Death NTR” value [3, 8] was 0. For the same molecule, the “# Death TR” value [3, 8] was 0, the “MDS to 1.0 g ± SEM (n)” value ([3]; Group 6: 60 mg/kg IV QD × 1 in 5% E-95% I-20) was 51.9 ± 0.0 and the “# Death NTR” value [3, 9] was 0. The “# Death TR” value [3, 9] was 0, the “# Death NTR” value [3, 10] was 0 and the “# Death TR” value [3, 10] was 5. For the same molecule, the “MDS to 1.0 g ± SEM (n)” value ([3]; Group 8: 60 mg/kg IV QD × 1 in 5% ET in Saline) was 51.8±, the “# Death NTR” value [3, 11] was 0 and the “# Death TR” value [3, 11] was 0. The “# Death NTR” value [3, 12] was 0, the “# Death TR” value [3, 12] was 0 and the “MDS to 1.0 g ± SEM (n)” value ([3]; Group 10: 60 mg/kg IV QD × 1 in 5% EC in Saline) was 46.0±. The “# Death NTR” value [3, 13] was 0, the “# Death TR” value [3, 13] was 0 and the “# Death NTR” value [3, 14] was 0. The “# Death TR” value [3, 14] was 0, the “# Death NTR” value [3, 15] was 0 and the “# Death TR” value [3, 15] was 0. For the same molecule, the “# Death NTR” value [3, 16] was 0, the “# Death TR” value [3, 16] was 0 and the “# Death NTR” value [3, 17] was 0. The “# Death TR” value [3, 17] was 0, the “# Death NTR” value [3, 18] was 0 and the “# Death TR” value [3, 18] was 0. For the same molecule, the “# Death NTR” value [3, 19] was 0, the “# Death TR” value [3, 19] was 0 and the “Efficacy Score = 10*(TWd1−TWdn)/TWd1” value ([3]; Dose 60, best score 10) was 8. The “Efficacy Score = 10*(TWd1−TWdn)/TWd1” value ([3]; Dose 120, best score 10) was 8.7.
